# Patent publication US8629132B2, “Kinase inhibitors” (Genosco, priority 2009, dated 2014)
# Columns and labels:
# FAK = target: T1, FAK (Homo sapiens, UniProt Q05397); experiment: Kinase inhibition assay: FAK; format: biochemical; settings: at 1 μM concentration
# T1 construct: truncated human FAK, RET, FLT3, JAK2, and LRRK2; purchased Carna Biosciences
# Protocol: (§1) Compounds of the present invention were tested for their capacity to inhibit a kinase panel which includes, but are not limited to, spleen tyrosine kinase (SYK), zeta-chain-associated protein kinase 70 (ZAP70), PTK2B protein tyrosine kinase 2 (PYK2), focal adhesion kinase (FAK), provirus integration of maloney kinase 1 (PIM1), rearranged during transfection kinase (RET), Fms-like tyrosine kinase 3 (FLT3), Janus kinase 2 (JAK2), and leucine-rich repeat kinase 2 (LRRK2).
# (§2) Inhibition of SYK, ZAP70, PYK2, FAK, PIM1, RET, FLT3, JAK2 and LRRK2 Kinase Activity
# (§3) Compounds of the invention were initially diluted to 10 mM in 100% DMSO (CALBIOCHEM™) for storage and made into kinase buffer solution to create a compound concentration ranging from 1 uM and 10 uM. Serial dilutions of compounds of the invention were dispensed into a 96-well plate (GREINER BIOSCIENCES™) at 6 μL each. Purified full-length human SYK, ZAP70, PIM1, PYK2 and truncated human FAK, RET, FLT3, JAK2, and LRRK2 (CARNA BIOSCIENCES™) were diluted in kinase buffer and added to the compound solutions and pre-incubated for 30 minutes at room temperature (1 hour for PYK2). […] The reaction mixture was incubated for 1 hour (2 hours for PYK2). Following the incubation, the stop solution made with EDTA, water, and Lance detection buffer ([…]™) was added (12μL each) to stop phosphorylation. […] The IC50 value of test compound was calculated at Gradpad Prism 5 unless specified otherwise.
# ZAP70 = target: T2, ZAP70 (Homo sapiens, UniProt P43403); experiment: Kinase inhibition assay: ZAP70; format: biochemical; settings: at 1 μM concentration
# T2 construct: Purified full-length human SYK, ZAP70, PIM1, PYK2; purchased Carna Biosciences
# T2 sequence (P43403 1-619): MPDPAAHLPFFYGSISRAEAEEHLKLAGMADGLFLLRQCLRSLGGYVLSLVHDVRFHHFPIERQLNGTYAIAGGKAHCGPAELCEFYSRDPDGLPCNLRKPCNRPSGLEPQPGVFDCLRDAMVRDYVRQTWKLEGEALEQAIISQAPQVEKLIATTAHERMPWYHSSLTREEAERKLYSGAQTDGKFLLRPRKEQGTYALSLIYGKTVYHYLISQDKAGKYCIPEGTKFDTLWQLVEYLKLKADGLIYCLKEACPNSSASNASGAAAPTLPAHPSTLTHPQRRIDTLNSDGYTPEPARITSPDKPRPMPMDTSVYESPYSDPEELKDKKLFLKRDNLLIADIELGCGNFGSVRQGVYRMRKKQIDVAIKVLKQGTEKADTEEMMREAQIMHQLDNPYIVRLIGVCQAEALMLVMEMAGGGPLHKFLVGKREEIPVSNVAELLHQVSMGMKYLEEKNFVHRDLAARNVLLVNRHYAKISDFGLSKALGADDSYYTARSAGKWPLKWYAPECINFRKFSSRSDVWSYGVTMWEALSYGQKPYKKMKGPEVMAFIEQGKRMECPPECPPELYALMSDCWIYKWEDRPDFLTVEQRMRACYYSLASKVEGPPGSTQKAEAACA
# Protocol: as §1, §2, §3
# SYK = target: T3, SYK (Homo sapiens, UniProt P43405); experiment: Kinase inhibition assay: SYK; format: biochemical; settings: at 1 μM concentration
# T3 construct: Purified full-length human SYK, ZAP70, PIM1, PYK2; purchased Carna Biosciences
# Protocol: as §1, §2, §3
# PYK2 = target: T4, PYK2 (Homo sapiens, UniProt Q14289); experiment: Kinase inhibition assay: PYK2; format: biochemical; settings: at 1 μM concentration
# T4 construct: Purified full-length human SYK, ZAP70, PIM1, PYK2; purchased Carna Biosciences
# Protocol: as §1, §2, §3
# JAK2 = JAK2 (Homo sapiens, UniProt O60674); experiment: Kinase inhibition assay: JAK2; format: biochemical; design: truncated human FAK, RET, FLT3, JAK2, and LRRK2; purchased Carna Biosciences
# Protocol: as §1, §2, §3
# RET = target: T5, RET (Homo sapiens, UniProt P07949); experiment: Kinase inhibition assay: RET; format: biochemical
# T5 construct: truncated human FAK, RET, FLT3, JAK2, and LRRK2; purchased Carna Biosciences
# T5 sequence (P07949 658-1114 limits assumed): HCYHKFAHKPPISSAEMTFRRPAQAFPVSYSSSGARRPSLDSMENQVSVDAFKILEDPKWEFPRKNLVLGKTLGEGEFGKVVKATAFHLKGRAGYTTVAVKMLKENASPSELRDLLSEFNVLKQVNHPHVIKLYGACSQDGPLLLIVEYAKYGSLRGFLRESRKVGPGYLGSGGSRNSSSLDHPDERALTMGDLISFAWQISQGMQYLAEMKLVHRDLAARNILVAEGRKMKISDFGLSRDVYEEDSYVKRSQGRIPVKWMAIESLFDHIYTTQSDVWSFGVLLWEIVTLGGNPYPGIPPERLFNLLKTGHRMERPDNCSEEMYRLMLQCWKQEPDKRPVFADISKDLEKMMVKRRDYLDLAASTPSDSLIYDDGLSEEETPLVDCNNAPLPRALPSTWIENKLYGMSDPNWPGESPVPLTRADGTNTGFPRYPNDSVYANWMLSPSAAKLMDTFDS
# Protocol: as §1, §2, §3
# FLT3 = target: T6, FLT3 (Homo sapiens, UniProt P36888); experiment: Kinase inhibition assay: FLT3; format: biochemical
# T6 construct: truncated human FAK, RET, FLT3, JAK2, and LRRK2; purchased Carna Biosciences
# T6 sequence (P36888 564-993 limits assumed): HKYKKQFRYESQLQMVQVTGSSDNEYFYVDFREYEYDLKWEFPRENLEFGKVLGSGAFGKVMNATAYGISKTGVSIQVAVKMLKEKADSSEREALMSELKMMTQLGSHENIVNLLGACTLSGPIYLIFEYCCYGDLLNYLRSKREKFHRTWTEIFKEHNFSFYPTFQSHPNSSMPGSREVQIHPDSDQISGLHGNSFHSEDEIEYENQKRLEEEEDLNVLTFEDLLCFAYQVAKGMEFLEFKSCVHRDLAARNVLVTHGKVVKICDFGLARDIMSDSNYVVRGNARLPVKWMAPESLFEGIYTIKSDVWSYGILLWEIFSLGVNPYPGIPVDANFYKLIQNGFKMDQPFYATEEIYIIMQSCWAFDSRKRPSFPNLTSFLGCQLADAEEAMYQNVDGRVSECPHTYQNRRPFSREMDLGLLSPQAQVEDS
# Protocol: as §1, §2, §3
# HEL cells = experiment: Cell viability assay: JAK2 inhibition; format: cell-based, human; settings: for IC50: Homo sapiens, 72-hour incubation, HEL cells expressing JAK2 V617F, read-out: Cell Viability: JAK2 kinase Inhibition HEL (IC50 nM)
# Protocol: Compounds of the invention are tested for their effects on JAK2 inhibition in human erythroleukemic cell line (HEL) to illustrate potential efficacy at the cellular level. The Janus-associated kinase (JAK) family, comprised of four different protein tyrosine kinases JAK1, JAK2, JAK3, and TYK2, plays an important role in cellular survival, proliferation, and differentiation. V617F, a unique mutation in the JAK2 gene (a valine-to-phenylalanine substitution) results in constitutive kinase activity and promotes deregulated hematopoiesis. JAK2 V617F is frequently detected in myeloproliferative disorders (MPDs), a group of clonal hematopoietic stem cell disorders that include polycythemia vera (PV), essential thrombocythemia (ET), and idiopathic myelofibrosis (IMF), all of which have the potential to transform to acute myeloid leukemia. JAK2 V617F is constitutively phosphorylated and able to activate downstream signaling in the absence of cytokine stimulation.
# Compounds of the present invention were tested for their effects on viability of HEL cells. For cell viability assay, HEL cells expressing human JAK2 V617F were obtained from the American Type Culture Collection (ATCC, Manassas, Va.). This cell line was maintained with Roswell Park Memorial Institute (RPMI) medium (HyClone™) containing 10 bovine calf serum (BCS; Hyclone™) supplemented iron. The HEL cells were seeded at 2×10^4 cells in 96 well culture plates, and serially diluted compound was then added. After a 72-hour incubation period at 37° C., viability of cells was measured using the ATPLite 1 step assay (Perkin-Elmer™) that is based on the quantification of ATP from viable cells. CellTiter Aqueous assay (Promega™) was also performed in parallel as an orthogonal assay. IC50 values were calculated using nonlinear regression and defined as the concentration needed for a 50 reduction in luminescence or absorbance treated versus untreated control cells (Prism™ Software).
# LRRK2 = target: T7, LRRK2 (Homo sapiens, UniProt Q5S007); experiment: Kinase inhibition assay: LRRK2; format: biochemical; settings: for inhibition at 1 µM: at 1 μM concentration
# T7 construct: truncated human FAK, RET, FLT3, JAK2, and LRRK2; purchased Carna Biosciences
# Protocol: as §1, §2, §3
# MV4-11 cells = experiment: Cell viability assay: FLT3-ITD-positive cells; format: cell-based, human; settings: for IC50: Homo sapiens, MV4-11, 72-hour incubation, read-out: Viability of FLT3-ITD Induced Cancer Cell Line MV-4-11 (IC50 nM)
# Protocol: Compounds of the invention were tested for their effects on inhibition of FLT3-ITD in human acute leukemia cell line (MV4-11). FLT3 is primarily expressed in immature hematopoietic progenitor as well as in mature myeloid cells. It belongs to type III receptor tyrosine kinase (RTK) family including KIT, FMS, and PDGFR. It is activated by binding to FL, which leads to increased kinase activity and activation of downstream signaling pathway including STATS, Ras, and PI3Kinase.
# Compounds of the invention were tested for cell viability effect on MV4-11 cells. For cell viability assay, MV4-11 cells expressing human FLT3-ITD were obtained from the American Type Culture Collection (ATCC, Manassas, Va.). This cell line was maintained with an Roswell Park Memorial Institute (RPMI) medium (HyClone™) containing 10 bovine calf serum (BCS; Hyclone™) supplemented iron. The MV4-11 cells were seeded at 2×10^4 cells in 96-well culture plates, and serially diluted compound was then added. After a 72-hour incubation period at 37° C., cell viability was measured using the ATPLite 1 step assay (Perkin-Elmer™) that is based on the quantification of ATP from viable cells. CellTiter Aqueous assay (Promega™) was also performed in parallel as an orthogonal assay. IC50 values were calculated using nonlinear regression and defined as the concentration needed for a 50 reduction in luminescence or absorbance treated versus untreated control cells (Prism™ Software).
# Sequence of JAK2 (O60674 826-1132 limits assumed): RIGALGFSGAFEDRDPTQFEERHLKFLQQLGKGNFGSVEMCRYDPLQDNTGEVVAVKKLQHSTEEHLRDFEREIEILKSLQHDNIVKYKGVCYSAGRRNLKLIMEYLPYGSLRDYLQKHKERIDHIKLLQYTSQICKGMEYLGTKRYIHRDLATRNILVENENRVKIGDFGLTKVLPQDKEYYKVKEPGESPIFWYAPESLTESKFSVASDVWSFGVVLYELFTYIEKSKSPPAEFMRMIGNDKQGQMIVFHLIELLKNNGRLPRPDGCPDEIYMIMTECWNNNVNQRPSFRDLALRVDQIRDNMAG
# T7 sequence (Q5S007 970-2527 limits assumed): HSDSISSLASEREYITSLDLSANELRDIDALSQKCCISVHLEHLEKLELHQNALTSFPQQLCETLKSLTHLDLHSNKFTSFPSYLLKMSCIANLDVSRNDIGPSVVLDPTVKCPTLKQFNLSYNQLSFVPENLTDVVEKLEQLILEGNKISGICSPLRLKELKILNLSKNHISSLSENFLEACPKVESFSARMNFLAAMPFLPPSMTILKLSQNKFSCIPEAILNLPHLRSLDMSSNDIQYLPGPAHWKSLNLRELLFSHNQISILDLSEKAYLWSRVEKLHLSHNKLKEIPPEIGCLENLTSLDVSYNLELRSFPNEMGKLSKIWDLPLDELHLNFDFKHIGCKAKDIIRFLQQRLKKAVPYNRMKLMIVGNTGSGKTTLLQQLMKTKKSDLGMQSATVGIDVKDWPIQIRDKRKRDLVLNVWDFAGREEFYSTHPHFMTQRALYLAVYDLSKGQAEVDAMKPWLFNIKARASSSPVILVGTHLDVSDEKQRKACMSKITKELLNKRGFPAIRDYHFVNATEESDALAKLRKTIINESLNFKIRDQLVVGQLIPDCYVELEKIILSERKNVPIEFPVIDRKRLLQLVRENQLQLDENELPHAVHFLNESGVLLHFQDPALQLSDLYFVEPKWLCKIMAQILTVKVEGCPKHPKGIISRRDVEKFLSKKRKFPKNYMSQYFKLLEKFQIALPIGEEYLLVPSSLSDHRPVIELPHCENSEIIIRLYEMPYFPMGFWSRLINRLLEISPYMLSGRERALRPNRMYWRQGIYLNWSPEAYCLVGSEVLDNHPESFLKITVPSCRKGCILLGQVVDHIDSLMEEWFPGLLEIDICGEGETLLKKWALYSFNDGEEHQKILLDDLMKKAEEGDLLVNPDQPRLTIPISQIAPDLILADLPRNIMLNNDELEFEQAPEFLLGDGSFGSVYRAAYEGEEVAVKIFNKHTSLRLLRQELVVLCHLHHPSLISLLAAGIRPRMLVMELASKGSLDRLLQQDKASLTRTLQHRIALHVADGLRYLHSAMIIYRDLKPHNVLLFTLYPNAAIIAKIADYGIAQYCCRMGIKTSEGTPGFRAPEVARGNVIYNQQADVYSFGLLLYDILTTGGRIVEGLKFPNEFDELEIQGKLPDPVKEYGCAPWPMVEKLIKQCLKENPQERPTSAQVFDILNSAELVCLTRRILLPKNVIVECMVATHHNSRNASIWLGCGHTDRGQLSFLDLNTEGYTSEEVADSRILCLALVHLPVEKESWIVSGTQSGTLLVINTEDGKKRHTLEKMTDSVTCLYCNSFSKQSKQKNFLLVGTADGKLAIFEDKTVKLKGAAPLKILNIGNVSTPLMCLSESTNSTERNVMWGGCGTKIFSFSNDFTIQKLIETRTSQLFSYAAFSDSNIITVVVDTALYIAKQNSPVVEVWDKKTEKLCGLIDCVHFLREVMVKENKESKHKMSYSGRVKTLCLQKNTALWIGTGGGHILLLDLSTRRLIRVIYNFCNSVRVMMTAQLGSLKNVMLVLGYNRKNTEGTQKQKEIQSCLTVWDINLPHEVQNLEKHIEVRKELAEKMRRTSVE
# T4 sequence (Q14289 whole entry): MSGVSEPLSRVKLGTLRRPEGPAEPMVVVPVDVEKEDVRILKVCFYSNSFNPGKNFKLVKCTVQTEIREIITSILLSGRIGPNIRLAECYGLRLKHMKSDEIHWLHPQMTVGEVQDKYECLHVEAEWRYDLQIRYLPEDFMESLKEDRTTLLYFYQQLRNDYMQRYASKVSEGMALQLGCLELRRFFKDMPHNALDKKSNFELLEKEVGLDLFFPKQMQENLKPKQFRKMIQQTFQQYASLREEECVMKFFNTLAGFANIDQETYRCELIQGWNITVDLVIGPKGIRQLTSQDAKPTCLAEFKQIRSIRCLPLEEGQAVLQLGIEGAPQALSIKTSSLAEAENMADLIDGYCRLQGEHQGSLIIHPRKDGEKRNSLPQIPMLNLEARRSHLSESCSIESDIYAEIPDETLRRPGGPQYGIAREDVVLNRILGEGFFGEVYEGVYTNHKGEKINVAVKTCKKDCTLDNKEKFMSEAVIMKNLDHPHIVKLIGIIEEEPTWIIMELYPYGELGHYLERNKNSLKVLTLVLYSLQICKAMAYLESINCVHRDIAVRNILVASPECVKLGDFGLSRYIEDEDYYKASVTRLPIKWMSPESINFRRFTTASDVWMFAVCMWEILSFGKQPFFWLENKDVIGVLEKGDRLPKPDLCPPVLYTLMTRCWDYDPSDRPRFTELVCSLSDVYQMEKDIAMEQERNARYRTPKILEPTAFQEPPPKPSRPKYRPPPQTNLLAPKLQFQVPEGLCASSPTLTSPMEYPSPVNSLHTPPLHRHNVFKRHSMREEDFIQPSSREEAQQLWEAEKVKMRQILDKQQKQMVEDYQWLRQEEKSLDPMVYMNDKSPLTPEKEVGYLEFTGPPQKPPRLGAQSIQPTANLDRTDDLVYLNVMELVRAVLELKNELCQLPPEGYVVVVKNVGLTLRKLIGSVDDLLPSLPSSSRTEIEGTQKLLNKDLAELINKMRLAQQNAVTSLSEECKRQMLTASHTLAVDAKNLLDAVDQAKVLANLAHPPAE
# T1 sequence (Q05397 376-1052 limits assumed): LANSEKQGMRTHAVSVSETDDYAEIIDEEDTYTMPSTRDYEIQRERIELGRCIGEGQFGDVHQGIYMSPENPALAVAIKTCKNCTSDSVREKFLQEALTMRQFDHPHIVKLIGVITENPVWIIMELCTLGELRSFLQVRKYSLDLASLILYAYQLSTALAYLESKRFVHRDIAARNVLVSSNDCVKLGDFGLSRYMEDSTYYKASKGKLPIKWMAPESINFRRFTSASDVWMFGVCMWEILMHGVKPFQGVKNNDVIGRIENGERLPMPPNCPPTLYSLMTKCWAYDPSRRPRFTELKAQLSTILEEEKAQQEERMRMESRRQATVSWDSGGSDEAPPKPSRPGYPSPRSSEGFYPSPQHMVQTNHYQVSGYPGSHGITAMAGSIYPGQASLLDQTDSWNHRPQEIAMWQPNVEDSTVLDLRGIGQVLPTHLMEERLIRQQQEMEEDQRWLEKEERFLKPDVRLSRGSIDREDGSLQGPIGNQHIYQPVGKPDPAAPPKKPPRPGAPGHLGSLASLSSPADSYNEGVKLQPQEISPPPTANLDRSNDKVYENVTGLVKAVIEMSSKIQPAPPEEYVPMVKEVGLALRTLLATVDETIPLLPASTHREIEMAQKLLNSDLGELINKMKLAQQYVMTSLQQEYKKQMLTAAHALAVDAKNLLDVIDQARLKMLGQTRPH
structure (smiles),measurement,setting,value
"COc1cc(Nc2ncc(F)c(-n3cc(C)c(CO)c3)n2)cc(OC)c1 [Compound 16, (1-(2-(3,5-dimethoxy-phenylamino)-5-fluoro-pyrimidin-4-yl)-4-methyl-1H-pyrrol-3-yl)methanol]",inhibition at 1 µM,FAK,34.1%
same,inhibition at 1 µM,ZAP70,31.9%
same,inhibition at 1 µM,SYK,80.7%
same,inhibition at 1 µM,PYK2,84.9%
"Cc1cn(-c2nc(Nc3ccc(N4CC[C@H](O)C4)c(C)c3)ncc2C)cc1CO [Compound 24, (S)-1-(4-(4-(3-(hydroxyl-methyl)-4-methyl-1H-pyrrol-1-yl)-5-methyl-pyrimidin-2-ylamino)-2-methylphenyl)pyrrolidin-3-ol]",IC50,JAK2,1.6 nM
same,IC50,RET,40.4 nM
same,IC50,FLT3,6.8 nM
same,inhibition level compared with Sorafenib,HEL cells; HEL,greater than those exhibited by Sorafenib
same,IC50,HEL cells,229 nM
"Cc1cc(C)cc(Nc2nccc(-n3cc(C(=O)N(C)CCO)c(C)n3)n2)c1 [Compound 29, 1-(2-(3,5-dimethylphenylamino)pyrimidin-4-yl)-N-(2-hydroxyethyl)-N,3-dimethyl-1H-pyrazole-4-carboxamide]",inhibition at 1 µM,RET; at 1 μM concentration,42%
same,inhibition at 1 µM,FLT3; at 1 μM concentration,53%
same,inhibition at 1 µM,LRRK2,31.4%
"Cc1cc(C)cc(Nc2nccc(-n3cc(C(=O)N4CC[C@@H](O)C4)c(C)n3)n2)c1 [Compound 32, (R)-(1-(2-(3,5-dimethylphenylamino)pyrimidin-4-yl)-3-methyl-1H-pyrazol-4-yl)(3-hydroxypyrrolidin-1-yl)methanone]",inhibition at 1 µM,JAK2; at 1 μM concentration,40%
same,IC50,RET,51.3 nM
same,inhibition at 1 µM,LRRK2,44.3%
"Cc1cc(C)cc(Nc2nccc(-n3cc(C)c(CN4CC[C@@H](O)C4)c3)n2)c1 [Compound 41, (R)-1-((1-(2-(3,5-dimethylphenylamino)pyrimidin-4-yl)-4-methyl-1H-pyrrol-3-yl)methyl)pyrrolidin-3-ol]",inhibition at 1 µM,FAK,13.9%
same,inhibition at 1 µM,SYK,99.3%
same,inhibition at 1 µM,PYK2,30.7%
"COc1cc(Nc2ncc(C)c(-n3cc(C)c(CN4CC(O)C4)c3)n2)cc(OC)c1OC [Compound 91, 1-((4-methyl-1-(5-methyl-2-(3,4,5-trimethoxyphenylamino)pyrimidin-4-yl)-1H-pyrrol-3-yl)methyl)azetidin-3-ol]",IC50,JAK2,36.5 nM
same,IC50,RET,5.2 nM
same,inhibition level compared with Vandetinib and Sunitinib,MV4-11 cells; FLT3 ITD induced cancer cell line (MV4-11),greater than those exhibited by Vandetinib and Sunitinib
same,IC50,MV4-11 cells,1.5 nM
same,IC50,FLT3,0.4 nM
same,IC50,LRRK2,424 nM
"COc1cc(Nc2ncc(C)c(-n3cc(C)c(CN4CCCN(C(=O)C(C)(C)C)CC4)c3)n2)cc(OC)c1OC [Compound 97, 2,2-dimethyl-1-(4-((4-methyl-1-(5-methyl-2-(3,4,5-trimethoxyphenylamino)pyrimidin-4-yl)-1H-pyrrol-3-yl)methyl)-1,4-diazepan-1-yl)propan-1-one]",IC50,JAK2,65.1 nM
same,IC50,RET,35.8 nM
same,IC50,MV4-11 cells,79.2 nM
same,IC50,FLT3,3.6 nM
"CNC(=O)c1cc(Oc2ccc(NC(=O)Nc3ccc(Cl)c(C(F)(F)F)c3)cc2)ccn1 [Sorafenib, reference compound]",IC50,HEL cells,> 1000 nM
